# Assay results taken from US12304894B2, “Derivatives of adamantyl oxadiazoles and pharmaceutically acceptable solvates, hydrates and salts thereof, pharmaceutical composition comprising same, synthesis method, suitable for use as effective and selective inhibitors of the reductase activity of the enzyme 11-beta dehydrogenase type 1 …” (PONTIFICIA UNIVERSIDAD CATOLICA DE CHILE, priority 2019, dated 2025).
# What was measured:
# [1] = test system: Madin-Darby Canine Kidney (MDCK) cells transfected with human P-glycoprotein (hMDR1); conditions: MDCK-MDR1
# Protocol: Madin-Darby Canine Kidney (MDCK) cells were used in this assay, which are stably transfected with the gene encoding human P-glycoprotein (hMDR1). These cells were cultured in DMEM medium (Dulbecco's Modified Eagle's Medium) high in glucose and supplemented with 10% fetal bovine serum, 1% 5 mM pyruvate, 1% non-essential amino acids solution X5, 20,000 IU/mL of penicillin G and 20,000 IU/mL of streptomycin, a temperature of 37° C., 90% relative humidity and 5% CO2. These cells were seeded in sterile plates on the fourth day of growth or until reaching 90% confluence.
# Ten days before carrying out the transport analysis, cells were seeded in Transwells® inserts (1.12 cm2) at a density of 60,000 cells/cm^2. The monolayers were supplemented every two days with fresh culture medium. […] In parallel, B-A experiments were performed (1.5 mL of donor solution in basolateral compartment and 0.5 mL buffer in apical). The monolayers were incubated while stirring (50 rpm) at a temperature of 37° C. for a period of 2 hours. Additionally, this assay was performed in the presence of the Pgp inhibitor elacridar (5 μM). After the stir time, the inserts were removed, the compartments were sampled and the cells were transferred to HPLC vials by diluting these samples with mobile phase chromatography. These samples were kept at −20° C. until their analysis time. […]
# [2] = biological target: T1, recombinant 11β-HSD1 enzyme (Homo sapiens (Human), UniProt P28845); test: 11β-HSD1 oxidase activity (HTRF Cortisol Kit); format: biochemical
# T1 sequence (P28845 whole entry): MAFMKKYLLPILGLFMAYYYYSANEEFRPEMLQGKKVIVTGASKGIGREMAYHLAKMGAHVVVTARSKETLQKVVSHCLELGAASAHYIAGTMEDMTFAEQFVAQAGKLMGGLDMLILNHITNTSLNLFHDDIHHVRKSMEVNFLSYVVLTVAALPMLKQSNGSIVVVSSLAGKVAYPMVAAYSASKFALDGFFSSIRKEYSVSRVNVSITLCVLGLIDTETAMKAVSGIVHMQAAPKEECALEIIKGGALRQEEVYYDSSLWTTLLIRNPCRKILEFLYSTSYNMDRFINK
# Protocol: Determination of 11β-HSD1 Oxidase Activity
# The Cortisol Kit (Cisbio) product was used for that purpose.
# For the analysis, the compounds are reconstituted in DMSO in a stock of 10 mM concentration, from which serial dilutions were prepared for the efficiency curve.
# The recombinant 11β-HSD1 enzyme dilutions were prepared in 20 mM Tris Buffer 5 mM EDTA pH 6.0 (Tris buffer).
# Initially, the enzyme concentration to be used was determined. For this purpose, a plate for HRTF was prepared with Tris buffer with 100 nM cortisol and 200 μM NADP+, including in the wells of the plate for HTRF together with the enzyme in a 4:1 ratio, respectively, and incubated for 2 hours at 37° C. After this time, the reagents of the Cortisol kit, Cortisol d2 and Cortisol cryptate in sample ratio, Cortisol d2 and cortisol cryptate 2:1:1 were added, incubating this new reaction for 1 hour at room temperature. Subsequently, the fluorescence was determined at 665 and 620 nm.
# An HRTF plate was again prepared, where the reaction buffer, the recombinant 11β-HSD1 enzyme and the compound were added in each well in a 3:1:1 ratio, respectively. The plate was incubated at 37° C. for 2 hours. After the incubation time, the reagents of the cortisol kit, cortisol d2 and cortisol cryptate, were added as indicated above. They were then incubated at room temperature for 1 hour to finally read the fluorescence at 665 and 620 nm.
# [3] = biological target: T1, recombinant 11β-HSD1 enzyme; test: 11β-HSD1 reductase activity (HTRF Cortisol Kit); format: biochemical; conditions: 266 nM cortisone, 333 μM NADPH, read-out: 11b-HSD1 reductase (HTRF) IC50
# Protocol: Determination of 11β-HSD1 Reductase Activity
# First, stock solutions of the compounds were prepared in DMSO at a concentration of […], of which serial dilutions were made in order to determine the efficacy curve.
# As for the recombinant 11β-HSD1 enzyme (Cayman Chemical, MI, USA; Item No. 10007815), it was prepared in Tris Buffer 20 mM EDTA 5 mM pH 6.0 (Tris buffer) at different dilutions.
# Initially, the enzyme concentration to be used in the assays in order to evaluate the biological activity of the compounds was determined. The Cortisol Kit product (Cisbio, MA, USA; Cat no. 62CRTPEG) was used for that purpose.
# The protocol consisted of preparing the reaction buffer, adding 266 nM cortisone and 333 μM NADPH in Tris buffer. Then, this reaction buffer is added to the wells of the HTRF (Homogeneous Time Resolved Fluorescence) reaction plate together with the enzyme in a 4:1 ratio respectively, and incubated for 2 hours at 37° C. In the case of the control wells, two wells with Tris buffer were added, without compounds.
# After the incubation time, the reagents of the Cortisol kit were added, Cortisol d2 and Cortisol cryptate in sample ratio, Cortisol d2 and cortisol cryptate 2:1:1, in a quantity according to the size of the well as indicated by the supplier (for the negative control of the kit, the cortisol d2 is replaced by the kit's reconstitution buffer). This reaction is incubated for 1 hour at room temperature in order to later read the fluorescence at 665 and 620 nm.
# Once the enzyme concentration to be used has been determined, the cortisol kit protocol is continued to determine the efficacy curve for the compounds. As previously done, a plate for HTRF was prepared adding to each well of the reaction buffer, the recombinant 11β-HSD1 enzyme and the compounds to be assayed in a 3:1:1 ratio, respectively. The plate was subsequently incubated at 37° C. for 2 hours.
# After the incubation time, the reagents of the cortisol kit, cortisol d2 and cortisol cryptate, are added, and were incubated again for 1 hour at room temperature. Finally, the fluorescence of each well was determined at 665 and 620 nm.
# [4] = In vivo pharmacokinetics in mice, IV and oral; parameters: species or system male C57BL/6J mice
# Protocol: The animals were classified according to weight and divided into the following groups (Table 7):
# 20% Kolliphor and 50% PBS at a concentration of 1 mg/mL. From this solution, a 0.4 mg/mL dilution was made for IV administration.
# In intravenous (IV) administration, after each compound was administered to the mice, the mice were separated into groups of 3 and were euthanized at times 5, 10, 15, 30, 60, 120, 240, 260, 480 and 1440 minutes. For oral administration (V.O), the mice were separated into groups of 3 and were euthanized at times 15, 30, 60, 120, 240, 260, 480 and 1440 minutes. To obtain zero-time assays, mice were used to which no compound was administered.
# Whole blood was obtained from each animal (in microtubes with EDTA); these samples were centrifuged at 9000 g at a temperature of 4° C. for a period of 5 minutes, obtaining the plasma which was stored at −80° C.
# In addition, organs such as brain, liver, muscle, epididymal fat, heart and kidney were obtained from the animals, which were frozen in liquid nitrogen and stored at −80° C.
# Plasma samples and brain, liver, epididymal fat, and muscle (tissue) samples were analyzed. 2× in volume of water (weight/volume) was added to the tissue samples while 4× in volume of water (weight/volume) was added to the muscle mixture, after which they were homogenized using a Bullet Blender equipment (Next Advance, USA).
# All samples were analyzed as a single point by LC-MS/MS in accordance with the analytical methodology already standardized and presented in application example 3.
# To begin, a calibration curve was run. For this purpose, the controls, the plasma and organ samples were prepared by adding 180 μL of cold acetonitrile to these, then vortexed for 15 seconds and centrifuged at 6100 g for 30 seconds at 4° C. The supernatant which was obtained from this procedure was diluted in 2 volumes of 0.2% formic acid in water and transferred to a vial that will allow it to be injected into LC-MS/MS.
# The conditions for the LC-MS/MS analysis were: • HPLC: Eksigent UltraLC 100 • Autosampler: Eksigent UltraLC 100-XL at RT • Mobile phase: A-0.1% formic acid in water; B-0.1% formic acid in acetonitrile. • Column: YMC Triart 1.9 μm; 2.0×50 mm • Injection volume: 2 μL • Gradient: 5% B for 0.25 min→5-95% B for 0.75 min→95% B for 2 min→95-5% B for 0.25 min→5% B for 0.25 min • Flow: 0.6 mL/min • Mass Spectrometer: Applied Biosystems/SCIEX QTRAP 4500 • Interface: TurbolonSpray (ESI) at 600° C. • Software: Analyst.
substance,measurement,setting,value
"1-(3-pyridyl)-2-(3-adamantyl-1,2,4-oxadiazol-5-yl)ethane [BD-44]",Papp compared with high permeability marker minoxidil,[1],higher than those of the high permeability marker minoxidil
same,11b-HSD1 oxidase (activ rem %) 100 nM,[2]; remaining activity at 100 nM compound,107.0%
same,11b-HSD1 oxidase (activ rem %) 100 uM,[2]; remaining activity at 100 uM compound,94.3%
same,IC50,[3],3.9 nM
same,AUCExtr,"[4]; IV, 2 mg/Kg, plasma",0.672%
same,AUCInf,"[4]; IV, 2 mg/Kg, plasma",369 ng·h/mL
same,AUCfinal,"[4]; IV, 2 mg/Kg, plasma",368 ng·h/mL
same,CL,"[4]; IV, 2 mg/Kg, plasma",5.42 L/h/kg
same,Vz,"[4]; IV, 2 mg/Kg, plasma",7.95 L/kg
same,t1/2,"[4]; IV, 2 mg/Kg, plasma",1.02 h
same,AUCExtr,"[4]; PO, 10 mg/Kg, plasma",1.39%
same,AUCInf,"[4]; PO, 10 mg/Kg, plasma",148 ng·h/mL
same,AUCfinal,"[4]; PO, 10 mg/Kg, plasma",146 ng·h/mL
same,CL,"[4]; PO, 10 mg/Kg, plasma",67.3 L/h/kg
same,F,"[4]; PO, 10 mg/Kg, plasma",8.00%
same,Vz,"[4]; PO, 10 mg/Kg, plasma",102 L/kg
same,t1/2,"[4]; PO, 10 mg/Kg, plasma",1.05 h
same,tmax,"[4]; PO, 10 mg/Kg, plasma",30 min
same,mean time (of elimination) of the drug,"[4]; administered intravenously, plasma",1.02 h
same,mean time (of elimination) of the drug,"[4]; administered orally, plasma",1.05 h
same,time post administration up to which compound was detected,"[4]; both intravenously and orally, plasma",up to 6 hours
same,"detection in tissues (brain, liver, fat, muscle)",[4]; oral and intravenous administration,not detected in the tissues assayed
same,bioavailability / apparent availability,[4]; plasma,low apparent availability
